pEC50: −log10 of the molar value. In brackets after ≈: the same amount, converted by molar mass.
Legend:
Staphylococcus aureus [1] = experiment: Antimicrobial activity against methicillin-resistant Staphylococcus aureus ATCC 33591; format: functional
Bacillus subtilis = experiment: Antimicrobial activity against Bacillus subtilis ATCC 6633; format: functional
Human alphaherpesvirus 1 [2] = experiment: Antiviral activity against HSV1 KOS infected in HEL cells assessed as inhibition of virus-induced cytopathic effect; format: functional, organism-based; details: Human alphaherpesvirus 1, KOS
Enterococcus faecalis [3] = experiment: Antimicrobial activity against Enterococcus faecalis ATCC 29212; format: functional
H3N2 subtype = experiment: Antiviral activity against Influenza A virus (A/Hong Kong/7/1987(H3N2)) […] infected in MDCK cells assessed as inhibition of virus-induced cytopathic effect; format: functional, organism-based
[4] = test system: Staphylococcus epidermidis; experiment: Antimicrobial activity against Staphylococcus epidermidis over-expressing MecA; format: functional
[5] = Toxicity in MDCK cells assessed as induction of cell morphology changes; format: cell-based, Canis lupus familiaris; details: dog
Enterococcus faecalis [6] = experiment: Antimicrobial activity against Enterococcus faecalis ATCC 51299 over-expressing vanB; format: functional
Staphylococcus aureus [7] = experiment: Antimicrobial activity against methicillin-sensitive Staphylococcus aureus ATCC 29213; format: functional
Influenza B virus = experiment: Antiviral activity against Influenza B virus (B/Hong Kong/05/1972) […] infected in MDCK cells assessed as inhibition of virus-induced cytopathic effect; format: functional, cell-based; details: B/Hong Kong/05/1972, MDCK
Vaccinia virus = experiment: Antiviral activity against Vaccinia virus infected in HEL cells assessed as inhibition of virus-induced cytopathic effect; format: functional, organism-based; details: Orthopoxvirus vaccinia
Enterococcus faecalis [8] = experiment: Antimicrobial activity against Enterococcus faecalis 15376 over-expressing vanA; format: functional
Human alphaherpesvirus 2 = experiment: Antiviral activity against HSV2 G infected in HEL cells assessed as inhibition of virus-induced cytopathic effect; format: functional, organism-based; details: Human alphaherpesvirus 2, strain G
[9] = Toxicity in HEL cells assessed as induction of cell morphology changes; format: cell-based; details: human
Influenza A virus = experiment: Antiviral activity against Influenza A virus (A/Puerto Rico/8/1934(H1N1)) H1N1 infected in MDCK cells assessed as inhibition of virus-induced cytopathic effect; format: functional, organism-based
[10] = test system: Staphylococcus epidermidis; experiment: Antimicrobial activity against Staphylococcus epidermidis ATCC 35984 biofilms; format: functional
Human alphaherpesvirus 1 [11] = experiment: Antiviral activity against thymidine kinase deficient and acyclovir-resistant HSV1 KOS infected in HEL cells assessed as inhibition of virus-induced cytopathic effect; format: functional, organism-based; details: Human alphaherpesvirus 1, KOS
[12] = test system: Vesicular stomatitis virus; experiment: Antiviral activity against Vesicular stomatitis virus infected in HEL cells assessed as inhibition of virus-induced cytopathic effect; format: functional, organism-based

Structure (SMILES)	MBC (Staphylococcus aureus [1])	MIC (Staphylococcus aureus [1])	MBC (Bacillus subtilis)	MIC (Bacillus subtilis)	pEC50 (Human alphaherpesvirus 1 [2])	MBC (Enterococcus faecalis [3])	MIC (Enterococcus faecalis [3])	pEC50 (H3N2 subtype)	MBC [4]	MIC [4]	MCC [5]	MBC (Enterococcus faecalis [6])	MIC (Enterococcus faecalis [6])	MBC (Staphylococcus aureus [7])	MIC (Staphylococcus aureus [7])	pEC50 (Influenza B virus)	pEC50 (Vaccinia virus)	MBC (Enterococcus faecalis [8])	MIC (Enterococcus faecalis [8])	pEC50 (Human alphaherpesvirus 2)	other results
CC(=O)N[C@H]1[C@H](O[C@@H]2c3ccc(c(Cl)c3)Oc3cc4cc(c3O)Oc3ccc(cc3Cl)C[C@H]3NC(=O)[C@H](n5cc6cc7ccccc7cc6c5Sc5ccccc5)c5ccc(O)c(c5)Oc5cc(O)cc(c5)[C@H](NC3=O)C(=O)N[C@H]4C(=O)N[C@H]3C(=O)N[C@@H]2C(=O)N[C@H](C(=O)O)c2cc(O)cc(O)c2-c2cc3ccc2O)O[C@H](CO)[C@@H](O)[C@@H]1O	0.5 µg/mL (≈ 0.301 µM)	0.25 µg/mL (≈ 0.151 µM)	4 µg/mL (≈ 2.41 µM)	2 µg/mL (≈ 1.2 µM)	< 4.70	256 µg/mL (≈ 154 µM)	1 µg/mL (≈ 0.602 µM)	< 4.00	256 µg/mL (≈ 154 µM)	0.0313 µg/mL (≈ 0.0189 µM)	< 0.8 µM	256 µg/mL (≈ 154 µM)	2 µg/mL (≈ 1.2 µM)	1 µg/mL (≈ 0.602 µM)	0.0313 µg/mL (≈ 0.0189 µM)	< 4.00	< 4.70	32 µg/mL (≈ 19.3 µM)	0.125 µg/mL (≈ 0.0753 µM)	< 4.70	MCC [9]: 100 µM; pEC50 (Influenza A virus): < 4.00; MBC [10]: 0.5 µg/mL (≈ 0.301 µM); MIC [10]: 0.0313 µg/mL (≈ 0.0189 µM); pEC50 (Human alphaherpesvirus 1 [11]): < 4.70; pEC50 [12]: < 4.70
CC(=O)N[C@@H]1[C@@H](O)[C@H](O)[C@@H](CO)O[C@H]1Sc1c2ccccc2cn1[C@H]1C(=O)N[C@@H]2Cc3ccc(c(Cl)c3)Oc3cc4cc(c3O)Oc3ccc(cc3Cl)[C@@H](O[C@@H]3O[C@H](CO)[C@@H](O)[C@H](O)[C@H]3NC(C)=O)[C@@H]3NC(=O)[C@H](NC(=O)[C@@H]4NC(=O)[C@@H](NC2=O)c2cc(O)cc(c2)Oc2cc1ccc2O)c1ccc(O)c(c1)-c1c(O)cc(O)cc1[C@@H](C(=O)O)NC3=O	1 µg/mL (≈ 0.576 µM)	1 µg/mL (≈ 0.576 µM)	1 µg/mL (≈ 0.576 µM)	0.125 µg/mL (≈ 0.0719 µM)	4.33	256 µg/mL (≈ 147 µM)	1 µg/mL (≈ 0.576 µM)	< 4.00	64 µg/mL (≈ 36.8 µM)	0.0075 µg/mL (≈ 0.00432 µM)	< 0.8 µM	256 µg/mL (≈ 147 µM)	4 µg/mL (≈ 2.3 µM)	1 µg/mL (≈ 0.576 µM)	0.5 µg/mL (≈ 0.288 µM)	< 4.00	4.33	256 µg/mL (≈ 147 µM)	1 µg/mL (≈ 0.576 µM)	4.35	MCC [9]: ≥ 100 µM; pEC50 (Influenza A virus): < 4.00; MBC [10]: 0.5 µg/mL (≈ 0.288 µM); MIC [10]: 0.0313 µg/mL (≈ 0.018 µM); pEC50 (Human alphaherpesvirus 1 [11]): 4.35; pEC50 [12]: 4.28
CC(=O)N[C@H]1[C@H](O[C@@H]2c3ccc(c(Cl)c3)Oc3cc4cc(c3O)Oc3ccc(cc3Cl)C[C@H]3NC(=O)[C@H](n5cc6ccccc6c5S[C@@H]5O[C@H](COC(C)=O)[C@@H](OC(C)=O)[C@H](OC(C)=O)[C@H]5OC(C)=O)c5ccc(O)c(c5)Oc5cc(O)cc(c5)[C@H](NC3=O)C(=O)N[C@H]4C(=O)N[C@H]3C(=O)N[C@@H]2C(=O)N[C@H](C(=O)O)c2cc(O)cc(O)c2-c2cc3ccc2O)O[C@H](CO)[C@@H](O)[C@@H]1O	128 µg/mL (≈ 68.6 µM)	0.0313 µg/mL (≈ 0.0168 µM)	64 µg/mL (≈ 34.3 µM)	0.25 µg/mL (≈ 0.134 µM)	4.40	256 µg/mL (≈ 137 µM)	1 µg/mL (≈ 0.536 µM)	< 4.00	256 µg/mL (≈ 137 µM)	2 µg/mL (≈ 1.07 µM)	20 µM	256 µg/mL (≈ 137 µM)	4 µg/mL (≈ 2.15 µM)	16 µg/mL (≈ 8.58 µM)	0.0625 µg/mL (≈ 0.0335 µM)	< 4.00	4.35	256 µg/mL (≈ 137 µM)	4 µg/mL (≈ 2.15 µM)	4.96	MCC [9]: ≥ 100 µM; pEC50 (Influenza A virus): < 4.00; MBC [10]: 8 µg/mL (≈ 4.29 µM); MIC [10]: 2 µg/mL (≈ 1.07 µM); pEC50 (Human alphaherpesvirus 1 [11]): 4.40; pEC50 [12]: 4.32
CC(=O)N[C@H]1[C@H](O[C@@H]2c3ccc(c(Cl)c3)Oc3cc4cc(c3O)Oc3ccc(cc3Cl)C[C@H]3NC(=O)[C@H](n5cc6ccccc6c5Sc5nc6ccccc6s5)c5ccc(O)c(c5)Oc5cc(O)cc(c5)[C@H](NC3=O)C(=O)N[C@H]4C(=O)N[C@H]3C(=O)N[C@@H]2C(=O)N[C@H](C(=O)O)c2cc(O)cc(O)c2-c2cc3ccc2O)O[C@H](CO)[C@@H](O)[C@@H]1O	0.5 µg/mL (≈ 0.3 µM)	0.0075 µg/mL (≈ 0.0045 µM)	2 µg/mL (≈ 1.2 µM)	1 µg/mL (≈ 0.6 µM)	4.35	256 µg/mL (≈ 154 µM)	2 µg/mL (≈ 1.2 µM)	< 4.00	256 µg/mL (≈ 154 µM)	4 µg/mL (≈ 2.4 µM)	4 µM	256 µg/mL (≈ 154 µM)	0.0625 µg/mL (≈ 0.0375 µM)	0.5 µg/mL (≈ 0.3 µM)	0.0075 µg/mL (≈ 0.0045 µM)	< 4.00	4.33	256 µg/mL (≈ 154 µM)	0.0313 µg/mL (≈ 0.0188 µM)	4.35	MCC [9]: ≥ 100 µM; pEC50 (Influenza A virus): < 4.00; MBC [10]: 0.5 µg/mL (≈ 0.3 µM); MIC [10]: 0.0075 µg/mL (≈ 0.0045 µM); pEC50 (Human alphaherpesvirus 1 [11]): 4.35; pEC50 [12]: < 4.00
CC(=O)N[C@H]1[C@H](O[C@@H]2c3ccc(c(Cl)c3)Oc3cc4cc(c3O)Oc3ccc(cc3Cl)C[C@H]3NC(=O)[C@H](n5cc6ccccc6c5Sc5ncccn5)c5ccc(O)c(c5)Oc5cc(O)cc(c5)[C@H](NC3=O)C(=O)N[C@H]4C(=O)N[C@H]3C(=O)N[C@@H]2C(=O)N[C@H](C(=O)O)c2cc(O)cc(O)c2-c2cc3ccc2O)O[C@H](CO)[C@@H](O)[C@@H]1O	8 µg/mL (≈ 4.96 µM)	0.0313 µg/mL (≈ 0.0194 µM)	0.5 µg/mL (≈ 0.31 µM)	0.0625 µg/mL (≈ 0.0388 µM)	4.33	256 µg/mL (≈ 159 µM)	0.0313 µg/mL (≈ 0.0194 µM)	< 4.00	64 µg/mL (≈ 39.7 µM)	4 µg/mL (≈ 2.48 µM)	20 µM	256 µg/mL (≈ 159 µM)	1 µg/mL (≈ 0.62 µM)	0.5 µg/mL (≈ 0.31 µM)	0.0313 µg/mL (≈ 0.0194 µM)	< 4.00	≤ 4.24	256 µg/mL (≈ 159 µM)	0.0625 µg/mL (≈ 0.0388 µM)	4.35	MCC [9]: > 100 µM; pEC50 (Influenza A virus): < 4.00; MBC [10]: 1 µg/mL (≈ 0.62 µM); MIC [10]: 0.0165 µg/mL (≈ 0.0102 µM); pEC50 (Human alphaherpesvirus 1 [11]): 4.30; pEC50 [12]: < 4.00
CC(=O)N[C@H]1[C@H](O[C@@H]2c3ccc(c(Cl)c3)Oc3cc4cc(c3O)Oc3ccc(cc3Cl)C[C@H]3NC(=O)[C@H](n5cc6cc7ccccc7cc6c5Sc5nc6ccccc6s5)c5ccc(O)c(c5)Oc5cc(O)cc(c5)[C@H](NC3=O)C(=O)N[C@H]4C(=O)N[C@H]3C(=O)N[C@@H]2C(=O)N[C@H](C(=O)O)c2cc(O)cc(O)c2-c2cc3ccc2O)O[C@H](CO)[C@@H](O)[C@@H]1O	4 µg/mL (≈ 2.33 µM)	0.015 µg/mL (≈ 0.00873 µM)	4 µg/mL (≈ 2.33 µM)	0.0313 µg/mL (≈ 0.0182 µM)	< 4.00	256 µg/mL (≈ 149 µM)	0.0313 µg/mL (≈ 0.0182 µM)	5.80	256 µg/mL (≈ 149 µM)	0.0313 µg/mL (≈ 0.0182 µM)	20 µM	256 µg/mL (≈ 149 µM)	1 µg/mL (≈ 0.582 µM)	0.5 µg/mL (≈ 0.291 µM)	0.015 µg/mL (≈ 0.00873 µM)	< 4.00	< 4.00	32 µg/mL (≈ 18.6 µM)	0.0313 µg/mL (≈ 0.0182 µM)	< 4.00	MCC [9]: > 100 µM; pEC50 (Influenza A virus): > 5.31; MBC [10]: 0.5 µg/mL (≈ 0.291 µM); MIC [10]: 0.015 µg/mL (≈ 0.00873 µM); pEC50 (Human alphaherpesvirus 1 [11]): < 4.00; pEC50 [12]: < 4.00

Source: ChEMBL document CHEMBL2203009, “Synthesis of isoindole and benzoisoindole derivatives of teicoplanin pseudoaglycon with remarkable antibacterial and antiviral activities” (Bioorg Med Chem Lett, 2012)
